Data as given in US6613792B1, “Treatment of premenstrual syndrome and menopause” (Designed Nutritional Products, Inc., priority 1999, dated 2003).

Columns and labels:
[1] = tested on: premenstrual syndrome (PMS) symptoms; experiment: Case reports of subjects with premenstrual syndrome taking I3C capsules; assay type: in vivo, human
Experimental: Capsules containing 100 to 300 mg of 1H-indole-3-methanol (I3C™ from Designed Nutritional Products, Orem, Utah, U.S.) were made by placing that amount of 1H-indole-3-methanol into gelatin capsules. Capsules containing 200 mg of 1H-indole-3-methanol (I3C™ from Designed Nutritional Products, Orem, Utah, U.S.) were made by placing that amount of 1H-indole-3-methanol into gelatin capsules. Subject A, commonly suffered from fatigue, moodiness, and bluish circles beneath their eyes prior to menstruation. During menses, which typically lasted for 7-10 days, they experienced menstrual cramping which required ibuprofen for relief. Subject A had taken I3C™ for three menstrual cycles. […] Subject B had taken I3C™ for one menstrual cycle. Their PMS symptoms prior to taking I3C™ included extreme fatigue, frequent migraine headaches, bloating, moodiness, and severe menstrual cramps. They started taking I3C™ with no knowledge of its effects or benefits. […] Subject C had been diagnosed and treated for endometriosis. Their PMS symptoms included fatigue, heavy blood flow (menorrhagia), severe menstrual cramps, and menses of approximately 10 days. Subject C had taken I3C™ for six cycles. […] Subject D, had taken I3C™ for ½ months and noticed a rapid change in their PMS symptoms.

menopausal symptoms = experiment: Case report of a subject with menopausal symptoms taking I3C capsules; assay type: in vivo, human; details: Subject E
Experimental: Capsules containing 100 to 300 mg of 1H-indole-3-methanol (I3C™ from Designed Nutritional Products, Orem, Utah, U.S.) were made by placing that amount of 1H-indole-3-methanol into gelatin capsules. […] After the hysterectomy, Subject E had menopausal symptoms including hot flashes, occasional sweating profusion, grogginess after a full night's sleep, and almost continuous irritable bowel syndrome. Subject E started taking four 100 mg capsules of I3C™ per day, two capsules in the morning and two capsules in the late afternoon. […] Their hot flashes and excessive sweating disappeared after taking a few doses of I3C™.

[2] = Reactivity/stability of 1H-indole-3-methanol in solvent, sunlight and heat (HPLC); assay type: physicochemical
Experimental: Relatively pure 1H-indole-3-methanol (I3C™ from Designed Nutritional Products, Orem, Utah, U.S.) in a water solution was prepared for HPLC analysis. One sample was diluted with water and the other was diluted with methanol. […] In the course of manufacturing and formulating dietary supplements containing 1H-indole-3-methanol, it was observed that the carbinol in the three position is extremely reactive. […] In the course of heating at 60° C., 99% of the present 1H-indole-3-methanol will disappear from HPLC chromatograms, being replaced by as many as 40 or 50 different derived compounds, virtually all of them identified as containing an indole component. More detailed studies have shown that one of the first compounds to appear in a sample of 1H-indole-3-methanol undergoing heat treatment is ([…], a “dimer” of 1H-indole-3-methanol.

[3] = Subject C, endometriosis, six cycles

1H-indole-3-methanol disappearing from HPLC chromatograms on heating ([2]; heating at 60° C.): 99% | stability in the presence of sunlight ([2]; sunlight): change color in just a few hours | HPLC peaks after dilution with methanol (reaction to methyl ether) ([2]; water solution diluted with methanol, by the time of injection): two peaks of about the same magnitude | HPLC peaks after dilution with water ([2]; water solution diluted with water): only one peak
SMILES: OCc1c[nH]c2ccccc12 [I3C™, 1H-indole-3-methanol]
PMS symptoms (fatigue, moodiness, bluish circles beneath eyes, menstrual cramping) ([1]; Subject A, I3C taken for three menstrual cycles): the above symptoms were alleviated | duration of menses ([1]; Subject A, three menstrual cycles, typically 7-10 days before): approximately 4 days | PMS symptoms (extreme fatigue, migraine headaches, bloating, moodiness, severe menstrual cramps) ([1]; Subject B, within one menstrual cycle): experienced only mild fatigue and their remaining symptoms were alleviated | fatigue ([1]; Subject C, endometriosis, I3C taken for six cycles): ceased | menstrual blood flow [1, 3]: decreased substantially | severity of menstrual cramps [1, 3]: decreased | PMS symptoms after starting I3C again ([1]; Subject C, restart after withdrawal): their symptoms were alleviated | duration of menses ([1]; Subject C, six cycles, approximately 10 days before): approximately 5 days | PMS symptoms after stopping I3C for one menstrual cycle ([1]; Subject C, withdrawal for one cycle): previous PMS symptoms returned | PMS symptoms (bloating, headaches) ([1]; Subject D, I3C taken for ½ months): less bloating and reduced headaches | bowel, sleep and energy symptoms (menopausal symptoms; four 100 mg capsules per day for one month): bowel regularity, less sleep disturbances, and a steady energy level throughout the day | hot flashes and excessive sweating (menopausal symptoms; partial hysterectomy, four 100 mg capsules per day, after a few doses): disappeared
